# Read-outs that look alike come from different tables or passages of the source.
# Legend:
# Assay type in all cases: cell-based
# [1] = system: Staphylococcus epidermis sp-al-1; assay: MIC, Staphylococcus epidermis sp-al-1; settings: SPAL1; Staphylococcus epidermis sp-al-1; read-out: MIC
# [2] = system: Streptococcus agalactiae 1020; assay: MIC, Streptococcus agalactiae 1020; settings: Streptococcus agalactiae 1020; read-out: MIC
# [3] = system: Staphylococcus aureus ATCC 6538P; assay: MIC, Staphylococcus aureus ATCC 6538P; settings: ATCC6538P, read-out: MIC
# [4] = system: Staphylococcus aureus MS353 C36; assay: MIC, Staphylococcus aureus MS353 C36; settings: MS353C36
# [5] = system: Staphylococcus aureus 0127; assay: MIC, Staphylococcus aureus 0127 (macrolide resistant); settings: Staphylococcus aureus 0127; macrolide resistant bacteria A group; read-out: MIC
# Text: (§1) *macrolide resistant bacteria A group (clinical isolates of erythromycin,
# (§2) oleandomycin and 16membered macrolide antibiotic resistant strains.)
# Shigella sonnei E33 = assay: MIC, Shigella sonnei E33
# [6] = system: Escherichia coli NIHJ-JC2; assay: MIC, Escherichia coli NIHJ-JC2; settings: NIHJJC2
# Proteus vulgaris OX19 = assay: MIC, Proteus vulgaris OX19
# Salmonella typhosa H901 = assay: MIC, Salmonella typhosa H901
# [7] = system: Klebsiella pneumoniae ATCC 10031; assay: MIC, Klebsiella pneumoniae ATCC 10031
# Sarcina lutea ATCC 9341 = assay: MIC, Sarcina lutea ATCC 9341; settings: Micrococcus luteus, ATCC9341
# [8] = system: Staphylococcus aureus MS353 A0; assay: MIC, Staphylococcus aureus MS353 A0 (macrolide resistant); settings: MS353A0, macrolide resistant bacteria A group
# Text: as §1, §2
# [9] = system: Staphylococcus aureus MS353; assay: MIC, Staphylococcus aureus MS353; settings: Staphylococcus aureus MS353; read-out: MIC
# Serratia marcescens = assay: MIC, Serratia marcescens
# [10] = system: Streptococcus pyogenes 1022; assay: MIC, Streptococcus pyogenes 1022 (macrolide resistant); settings: Streptococcus pyogenes 1022; macrolide resistant bacteria A group; read-out: MIC
# Text: as §1, §2
# [11] = system: Corynebacterium diptheriae P.Y.8; assay: MIC, Corynebacterium diptheriae P.Y.8
# [12] = system: Streptococcus faecalis 1501; assay: MIC, Streptococcus faecalis 1501
# [13] = system: Bacillus subtilis ATC 6633; assay: MIC, Bacillus subtilis ATC 6633
# [14] = system: Streptococcus pyogenes N.Y.5; assay: MIC, Streptococcus pyogenes N.Y.5; settings: read-out: MIC
# [15] = system: Micrococcus flavus ATCC 10240; assay: MIC, Micrococcus flavus ATCC 10240; settings: ATCC10240
# Escherichia coli B = assay: MIC, Escherichia coli B
# [16] = system: Staphylococcus aureus 0119; assay: MIC, Staphylococcus aureus 0119 (macrolide resistant); settings: macrolide resistant bacteria A group
# Text: as §1, §2
# [17] = system: Shigella flexineri type 3a; assay: MIC, Shigella flexineri type 3a; settings: TYPE3A
# [18] = system: Pseudomonas aeruginosa IAM 1095; assay: MIC, Pseudomonas aeruginosa IAM 1095; settings: IAM1095
# [19] = system: Salmonella enteritidis Gaertner; assay: MIC, Salmonella enteritidis Gaertner; settings: Salmonella enterica
# [20] = Proteus vulgaris OX19, read-out: MIC
# [21] = ATCC10031, Klebsiella pneumoniae ATCC 10031, read-out: MIC
# [22] = Corynebacterium diptheriae P.Y.8, read-out: MIC
# [23] = Enterococcus faecalis, Streptococcus faecalis 1501, read-out: MIC
# [24] = ATC6633, Bacillus subtilis ATC 6633, read-out: MIC
# [25] = Micrococcus flavus ATCC 10240, read-out: MIC
# [26] = Pseudomonas aeruginosa IAM 1095, read-out: MIC
# [27] = Salmonella enteritidis Gaertner, read-out: MIC
Structure (SMILES),MIC [1],MIC [2],MIC [3],MIC [4],MIC [5],MIC (Shigella sonnei E33),MIC [6],MIC (Proteus vulgaris OX19; [20]),"MIC (Salmonella typhosa H901; Salmonella enterica, TYPHOSA)","MIC [7, 21]",MIC (Sarcina lutea ATCC 9341),MIC [8],MIC [9],MIC [10],"MIC [11, 22]","MIC [12, 23]","MIC [13, 24]",MIC [14],MIC (Escherichia coli B),"MIC [18, 26]",other results
CCC1OC(=O)CC(O)C(C)C(OC2OC(C)C(O)C(N(C)C)C2O)C(CC=O)CC(C)C(=O)C=CC(C)=CC1COc1ccccc1 (stereo not drawn),≤ 0.05 µg/mL,≤ 0.05 µg/mL,≤ 0.05 µg/mL,≤ 0.05 µg/mL,100 µg/mL,50 µg/mL,50 µg/mL,12.5 µg/mL,100 µg/mL,1.6 µg/mL,≤ 0.05 µg/mL,50 µg/mL,≤ 0.05 µg/mL,50 µg/mL,≤ 0.05 µg/mL,≤ 0.05 µg/mL,≤ 0.05 µg/mL,≤ 0.05 µg/mL,25 µg/mL,50 µg/mL,"MIC (Serratia marcescens; read-out: MIC): 25 µg/mL; MIC [15, 25]: ≤ 0.05 µg/mL; MIC [16]: 100 µg/mL; MIC [17]: 6.3 µg/mL; MIC [19, 27]: 100 µg/mL"
CCC1OC(=O)CC(O)C(C)C(OC2OC(C)C(O)C(N(C)C)C2O)C(CC=O)CC(C)C(=O)C=CC(C)=CC1COc1cccc(N(CC)CC)c1 (stereo not drawn),0.2 µg/mL,0.1 µg/mL,0.8 µg/mL,0.4 µg/mL,25 µg/mL,> 100 µg/mL,> 100 µg/mL,25 µg/mL,> 100 µg/mL,3.1 µg/mL,0.1 µg/mL,25 µg/mL,0.4 µg/mL,12.5 µg/mL,≤ 0.05 µg/mL,0.2 µg/mL,0.2 µg/mL,0.1 µg/mL,> 100 µg/mL,> 100 µg/mL,"MIC (Serratia marcescens; read-out: MIC): > 100 µg/mL; MIC [15, 25]: 0.1 µg/mL; MIC [16]: 50 µg/mL; MIC [17]: 50 µg/mL; MIC [19, 27]: > 100 µg/mL"
CCC1OC(=O)CC(O)C(C)C(OC2OC(C)C(O)C(N(C)C)C2O)C(CC=O)CC(C)C(=O)C=CC(C)=CC1CSC(C)c1ccccc1 (stereo not drawn) [23-(1-phenylethyl)thio-23-demycinosyl-23-deoxydesmycosin],≤ 0.05 µg/mL,0.1 µg/mL,0.2 µg/mL,–,–,50 µg/mL,50 µg/mL,12.5 µg/mL,100 µg/mL,3.1 µg/mL,0.05 µg/mL,25 µg/mL,0.2 µg/mL,25 µg/mL,–,0.2 µg/mL,0.2 µg/mL,≤ 0.05 µg/mL,–,> 100 µg/mL,–
"CC[C@H]1OC(=O)[C@H](C)[C@@H](O[C@H]2C[C@@](C)(OC)[C@@H](O)[C@H](C)O2)[C@H](C)[C@@H](O[C@@H]2O[C@H](C)C[C@H](N(C)C)[C@H]2O)[C@](C)(O)C[C@@H](C)C(=O)[C@H](C)[C@@H](O)[C@]1(C)O [EM, erythromycin, reference compound]",–,–,–,0.4 µg/mL,–,100 µg/mL,100 µg/mL,–,100 µg/mL,–,≤ 0.05 µg/mL,–,–,–,–,–,–,–,> 100 µg/mL,–,"MIC (Proteus vulgaris OX19; Proteus vulgaris OX19): 25 µg/mL; MIC (Proteus vulgaris OX19; Proteus vulgaris, OX19, Proteus vulgaris OX19): 50 µg/mL; MIC (Salmonella typhosa H901): 50 µg/mL; MIC ([7]; Klebsiella pneumoniae, ATCC10031, Klebsiella pneumoniae ATCC 10031): 6.3 µg/mL; MIC (Serratia marcescens): 100 µg/mL; MIC ([11]; Corynebacterium, P.Y.8): ≤ 0.05 µg/mL; MIC ([12]; Enterococcus faecalis, 1501, Streptococcus faecalis 1501): 0.2 µg/mL; MIC ([13]; Bacillus subtilis, ATC6633, Bacillus subtilis ATC 6633): 0.1 µg/mL; MIC ([15]; Micrococcus flavus): 0.1 µg/mL; MIC [17]: 12.5 µg/mL; MIC ([18]; Pseudomonas aeruginosa): 100 µg/mL; MIC ([19]; ENTERITIDIS): 100 µg/mL"
"CCC1OC(=O)CC(O)C(C)C(OC2OC(C)C(O)C(N(C)C)C2O)C(CC=O)CC(C)C(=O)C=CC(C)=CC1COC(c1ccccc1)(c1ccccc1)c1ccccc1 (stereo not drawn) [OC(C6 H5)3, 23-O-triphenylmethyl-23-demycinosyldesmycosin]",1.6 µg/mL,1.6 µg/mL,1.6 µg/mL,–,25 µg/mL,> 100 µg/mL,> 100 µg/mL,> 100 µg/mL,> 100 µg/mL,> 100 µg/mL,0.4 µg/mL,6.3 µg/mL,1.6 µg/mL,3.1 µg/mL,0.1 µg/mL,1.6 µg/mL,3.1 µg/mL,0.8 µg/mL,–,> 100 µg/mL,–

# Source: US4515941A, “23-Demycinosyldesmycosin derivatives” (Toyo Jozo Kabushiki Kaisha, priority 1982, dated 1985)
